This passage reports IC50 results from US20240300980A1, “HETEROCYCLIC COMPOUNDS AS KRAS INHIBITOR, AND PREPARATION THEREFOR AND USE THEREOF IN TREATMENT” (SHANGHAI KECHOW PHARMA, INC., priority 2021, published 2024).

What is called IC50 is the point on the concentration scale where inhibition reaches its midpoint.

The first test deals with AGS cells (KRAS^G12D). Kind of test: Detection of cell proliferation in vitro by MTT/MTS method (cell activity experiment). The class given is cell-based. As to conditions: AGS cells; MTT/MTS; 3 days of drug treatment; read-out: AGS IC50. In outline:
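KRAS G12D AGS cells seeded at 1000 per well, compound added 24 h later, 0.5% final DMSO. Viability read after 3 days of treatment by MTT (solubilised in DMSO) or MTS, 4 h, absorbance 490 nm. IC50 from dose–response curves versus DMSO control.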
A general note: Tetrazolium assays rely on reduction of a dye to a coloured formazan, in cell work by metabolically active cells.
Consider `CCC1CCCc2cc(O)cc(-c3ccc4c(N5C[C@H]6CC[C@@H](C5)N6)nc(OC[C@@]56CCCN5C[C@H](F)C6)nc4c3F)c21` (single isomer, unassigned) [Example 291], for which the half-inhibitory concentration (IC50) came out at 7.2 nM. In the case of `C#Cc1cccc2cc(O)cc(-c3ccc4c(N5C[C@H]6CC[C@@H](C5)[C@@H]6F)nc(OC[C@@]56CCCN5C[C@H](F)C6)nc4c3F)c12` [Example 125, 5-ethynyl-4-(8-fluoro-4-((1R,5S,8R)-8-fluoro-3-azabicyclo [3.2.1]octan-3-yl)-2-(((2R,7aS)-2-fluorotetrahydro-1H-pyrrolizin-7a(5H)-yl)methoxy)quinazolin-7-yl)naphthalen-2-ol], the IC50 is more than 2500 nM. `CCC1CCc2cc(O)cc(-c3ccc4c(N5C[C@H]6CC[C@@H](C5)N6)nc(OC[C@@]56CCCN5C[C@H](F)C6)nc4c3F)c21` (single isomer, unassigned) [Example 285]: the half-inhibitory concentration (IC50) amounted to 7 nM.

The same test, now with this note: Homo sapiens, AGS, 72 h, AGS cells; MTT/MTS; 3 days of drug treatment; read-out: AGS IC50.
In the case of `C#Cc1c(F)ccc2cc(O)cc(-c3ccc4c(N5C[C@H]6CC[C@@H](C5)N6)c(C#N)c(OC[C@@]56CCCN5C[C@H](F)C6)nc4c3)c12` [Example 171, 4-((1R,5S)-3,8-diazabicyclo[3.2.1]octan-3-yl)-7-(8-ethynyl-7-fluoro-3-hydroxynaphthalen-1-yl)-2-(((2R,7aS)-2-fluorotetrahydro-1H-pyrrolizin-7a(5H)-yl)methoxy)quinoline-3-carbonitrile], the IC50 stood at 1240 nM. On to `C#Cc1c(F)ccc2cc(O)cc(-c3ncc4c(N5CC6CCCC(C5)N6)nc(OC[C@@]56CCCN5C[C@H](F)C6)nc4c3F)c12` [Example 43, 4-(4-(3,9-diazabicyclo [3.3.1]nonan-3-yl)-8-fluoro-2-(((2R,7aS)-2-fluorotetrahydro-1H-pyrrolizin-7a(5H)-yl)methoxy)pyrido[4,3-d]pyrimidin-7-yl)-5-ethynyl-6-fluoronaphthalen-2-ol], for which the 50% inhibitory concentration (IC50) is 31 nM. `Oc1cc2c(c(-c3ncc4c(N5C[C@H]6CC[C@@H](C5)N6)nc(OC[C@@]56CCCN5C[C@H](F)C6)nc4c3F)c1)C1(CCC2)CC1` [Example 256, 8′-(4-((1R,5S)-3,8-diazabicyclo[3.2.1]octan-3-yl)-8-fluoro-2-(((2R,7aS)-2-fluorotetrahydro-1H-pyrrolizin-7a(5H)-yl)methoxy)pyrido[4,3-d]pyrimidin-7-yl)-3′,4′-dihydro-2′H-spiro[cyclopropane-1,1′-naphthalen]-6′-ol]: the IC50 amounted to 303 nM. Consider `C#Cc1c(F)ccc2cc(O)cc(-c3ncc4c(N(CCNC)C5CC5)nc(OC[C@@]56CCCN5C[C@H](F)C6)nc4c3F)c12` [Example 219, 4-(4-(cyclopropyl(2-(methyl-amino)ethyl)amino)-8-fluoro-2-(((2R,7aS)-2-fluorotetrahydro-1H-pyrrolizin-7a(5H)-yl)methoxy)pyrido[4,3-d]pyrimidin-7-yl)-5-ethynyl-6-fluoronaphthalen-2-ol], for which the concentration for half-maximal inhibition (IC50) is more than 2500 nM. Same read-out and setting: under `Oc1cc(N2CCc3c(nc(OC[C@@]45CCCN4C[C@H](F)C5)nc3N3C[C@H]4CC[C@@H](C3)N4)C2)c2c(F)c(F)ccc2c1` [Example 204, 4-(4-((1R,5S)-3,8-diazabicyclo[3.2.1]octan-3-yl)-2-(((2R,7aS)-2-fluorotetrahydro-1H-pyrrolizin-7a(5H)-yl)methoxy)-5,8-dihydropyrido[3,4-d]pyrimidin-7(6H)-yl)-5,6-difluoronaphthalen-2-ol] stands 11 nM; under `CC12CC1CCc1cc(O)cc(-c3ccc4c(N5C[C@H]6CC[C@@H](C5)N6)nc(OC[C@@]56CCCN5C[C@H](F)C6)nc4c3F)c12` (stereo partly drawn) [Example 281, 7-(4-((1R,5S)-3,8-diazabicyclo[3.2.1]octan-3-yl)-8-fluoro-2-(((2R,7aS)-2-fluorotetrahydro-1H-pyrrolizin-7a(5H)-yl)methoxy)quinazolin-7-yl)-7b-methyl-1a, 2,3,7b-tetrahydro-1H-cyclopropa[a]naphthalen-5-ol], 537 nM. Regarding `Nc1cc(-c2ncc3c(N4C[C@H]5CC[C@@H](C4)N5)nc(OC[C@@]45CCCN4C[C@H](F)C5)nc3c2F)c2ccccc2c1` [Example 42, 4-(4-((1R,5S)-3,8-diazabicyclo[3.2.1]octan-3-yl)-8-fluoro-2-(((2R,7aS)-2-fluorotetrahydro-1H-pyrrolizin-7a(5H)-yl)methoxy)pyrido[4,3-d]pyrimidin-7-yl) naphthalen-2-amine], the IC50 is 109 nM.

As for `CCc1c(F)ccc2cc(O)cc(-c3ncc4c(N5C[C@H]6CC[C@@H](C5)C6(F)F)nc(OC[C@@]56CCCN5C[C@H](F)C6)nc4c3F)c12` [Example 31, 4-(4-((1R,5S)-8,8-difluoro-3-azabicyclo [3.2.1]octan-3-yl)-8-fluoro-2-(((2R,7aS)-2-fluorotetrahydro-1H-pyrrolizin-7a(5H)-yl)methoxy)pyrido[4,3-d]pyrimidin-7-yl)-5-ethyl-6-fluoronaphthalen-2-ol], the 50% inhibitory concentration (IC50) was more than 2500 nM. Regarding `C#Cc1c(F)ccc2cc(O)cc(-c3ccc4c(N5CC(C(C)(C)N)C5)nc(OC[C@@]56CCCN5C[C@H](F)C6)nc4c3F)c12` [Example 212, 4-(4-(3-(2-aminopropan-2-yl)azetidin-1-yl)-8-fluoro-2-(((2R,7aS)-2-fluorotetrahydro-1H-pyrrolizin-7a(5H)-yl)methoxy)quinazolin-7-yl)-5-ethynyl-6-fluoronaphthalen-2-ol], the IC50 amounted to 419 nM. Take `C#Cc1cccc2cc(O)cc(-c3ccc4c(N5C[C@H]6CC[C@@H](C5)N6)c(C#N)c(OC[C@@]56CCCN5C[C@H](F)C6)nc4c3F)c12` [Example 182, 4-((1R,5S)-3,8-diazabicyclo[3.2.1]octan-3-yl)-7-(8-ethynyl-3-hydroxynaphthalen-1-yl)-8-fluoro-2-(((2R,7aS)-2-fluorotetrahydro-1H-pyrrolizin-7a(5H)-yl)methoxy)quinoline-3-carbonitrile]: the IC50 is 533 nM.

On to `C=C1CCCc2cc(O)cc(-c3ncc4c(N5C[C@H]6CC[C@@H](C5)N6)nc(OC[C@@]56CCCN5C[C@H](F)C6)nc4c3F)c21` [Example 253, 4-(4-((1R,5S)-3,8-diazabicyclo[3.2.1]octan-3-yl)-8-fluoro-2-(((2R,7aS)-2-fluorotetrahydro-1H-pyrrolizin-7a(5H)-yl)methoxy)pyrido[4,3-d]pyrimidin-7-yl)-5-methylene-5,6,7,8-tetrahydronaphthalen-2-ol], for which the IC50 was determined as 42 nM. For `C#Cc1c(F)ccc2cc(O)cc(-c3ccc4c(N5CC6CCNC6C5)nc(OC[C@@]56CCCN5C[C@H](F)C6)nc4c3F)c12` (stereo partly drawn) [Example 113, 5-ethynyl-6-fluoro-4-(8-fluoro-2-(((2R,7aS)-2-fluorotetrahydro-1H-pyrrolizin-7a(5H)-yl)methoxy)-4-(hexahydropyrrolo[3,4-b]pyrrol-5(1H)-yl)quinazolin-7-yl) naphthalen-2-ol], the IC50 is more than 2500 nM. Consider `[O-][S+]1C2CCC1CN(c1nc(OC[C@@]34CCCN3C[C@H](F)C4)nc3c(F)c(-c4cc(O)cc5ccc(F)c(F)c45)ncc13)C2` (stereo partly drawn) [Example 28, (1R,5S,8R)-3-(7-(7,8-difluoro-3-hydroxynaphthalen-1-yl)-8-fluoro-2-(((2R, 7aS)-2-fluorotetrahydro-1H-pyrrolizin-7a(5H)-yl)methoxy)pyrido[4,3-d]pyrimidin-4-yl)-8-thia-3-azabicyclo [3.2.1]octane 8-oxide], for which the IC50 is more than 1000 nM. Still for that read-out and setting: under `CCc1cccc2cc(O)cc(N3CCc4c(nc(OC[C@@]56CCCN5C[C@H](F)C6)nc4N4C[C@H]5CC[C@@H](C4)N5)C3)c12` [Example 207, 4-(4-((1R,5S)-3,8-diazabicyclo[3.2.1]octan-3-yl)-2-(((2R,7aS)-2-fluorotetrahydro-1H-pyrrolizin-7a(5H)-yl)methoxy)-5,8-dihydropyrido[3,4-d]pyrimidin-7(6H)-yl)-5-ethylnaphthalen-2-ol] stands 25 nM; under `C#Cc1c(F)ccc2cc(O)cc(-c3cc4nc(OC[C@@]56CCCN5C[C@H](F)C6)nc(N5C[C@H]6CC[C@@H](C5)N6)c4c4ncn(C)c34)c12` [Example 400, 4-(9-((1R,5S)-3,8-diazabicyclo[3.2.1]octan-3-yl)-7-(((2R,7aS)-2-fluorotetrahydro-1H-pyrrolizin-7a(5H)-yl)methoxy)-3-methyl-3H-imidazo[4,5-f]quinazolin-4-yl)-5-ethynyl-6-fluoronaphthalen-2-ol], more than 2500 nM; under `CCCC1CCc2cc(O)cc(-c3ncc4c(N5C[C@H]6CC[C@@H](C5)N6)nc(OC[C@@]56CCCN5C[C@H](F)C6)nc4c3F)c21` (stereo partly drawn) [Example 242, 7-(4-((1R,5S)-3,8-diazabicyclo[3.2.1]octan-3-yl)-8-fluoro-2-(((2R,7aS)-2-fluorotetrahydro-1H-pyrrolizin-7a(5H)-yl)methoxy)pyrido[4,3-d]pyrimidin-7-yl)-1-propyl-2,3-dihydro-1H-inden-5-ol], 34 nM. For `Oc1cc2c(c(-c3ncc4c(N5C[C@H]6CC[C@@H](C5)N6)nc(OC[C@@]56CCCN5C[C@H](F)C6)nc4c3F)c1)C(CC(F)F)CC2` (stereo partly drawn) [Example 258, 7-(4-((1R,5S)-3,8-diazabicyclo[3.2.1]octan-3-yl)-8-fluoro-2-(((2R,7aS)-2-fluorotetrahydro-1H-pyrrolizin-7a(5H)-yl)methoxy)pyrido[4,3-d]pyrimidin-7-yl)-1-(2,2-difluoroethyl)-2,3-dihydro-1H-inden-5-ol], the half-inhibitory concentration (IC50) is more than 10000 nM.

Turning to `C[C@@H]1OCC2(CCN(c3nc(OC[C@@]45CCCN4C[C@H](F)C5)nc4c(F)c(-c5cc(O)cc6ccc(F)c(F)c56)ncc34)CC2)[C@@H]1N` [Example 57, 4-(4-((3S,4S)-4-amino-3-methyl-2-oxa-8-azaspiro[4.5]decan-8-yl)-8-fluoro-2-(((2R, 7aS)-2-fluorotetrahydro-1H-pyrrolizin-7a(5H)-yl)methoxy)pyrido[4,3-d]pyrimidin-7-yl)-5,6-difluoronaphthalen-2-ol], the IC50 is more than 2500 nM.
